We go through 1 molecule from patent EP1344776A1, “5- 2-hydroxy-3-[1-(3-trifluoromethylphenyl)-cyclopropyl]-propionylamino -phtalide and 6- 2-hydroxy-3-[1-(3-trifluoromethylphenyl)-cyclopropyl]-propionylamino -4-methyl-2,3-benzoxazin-1-one derivatives with progesterone receptor modulating activity for use in fertility control, hormone replacement …” (Schering Aktiengesellschaft, priority 2002, dated 2003).

The target of test [1] is T1, androgen receptor (AR) (Homo sapiens, UniProt P10275).
T1 sequence (P10275 1-920): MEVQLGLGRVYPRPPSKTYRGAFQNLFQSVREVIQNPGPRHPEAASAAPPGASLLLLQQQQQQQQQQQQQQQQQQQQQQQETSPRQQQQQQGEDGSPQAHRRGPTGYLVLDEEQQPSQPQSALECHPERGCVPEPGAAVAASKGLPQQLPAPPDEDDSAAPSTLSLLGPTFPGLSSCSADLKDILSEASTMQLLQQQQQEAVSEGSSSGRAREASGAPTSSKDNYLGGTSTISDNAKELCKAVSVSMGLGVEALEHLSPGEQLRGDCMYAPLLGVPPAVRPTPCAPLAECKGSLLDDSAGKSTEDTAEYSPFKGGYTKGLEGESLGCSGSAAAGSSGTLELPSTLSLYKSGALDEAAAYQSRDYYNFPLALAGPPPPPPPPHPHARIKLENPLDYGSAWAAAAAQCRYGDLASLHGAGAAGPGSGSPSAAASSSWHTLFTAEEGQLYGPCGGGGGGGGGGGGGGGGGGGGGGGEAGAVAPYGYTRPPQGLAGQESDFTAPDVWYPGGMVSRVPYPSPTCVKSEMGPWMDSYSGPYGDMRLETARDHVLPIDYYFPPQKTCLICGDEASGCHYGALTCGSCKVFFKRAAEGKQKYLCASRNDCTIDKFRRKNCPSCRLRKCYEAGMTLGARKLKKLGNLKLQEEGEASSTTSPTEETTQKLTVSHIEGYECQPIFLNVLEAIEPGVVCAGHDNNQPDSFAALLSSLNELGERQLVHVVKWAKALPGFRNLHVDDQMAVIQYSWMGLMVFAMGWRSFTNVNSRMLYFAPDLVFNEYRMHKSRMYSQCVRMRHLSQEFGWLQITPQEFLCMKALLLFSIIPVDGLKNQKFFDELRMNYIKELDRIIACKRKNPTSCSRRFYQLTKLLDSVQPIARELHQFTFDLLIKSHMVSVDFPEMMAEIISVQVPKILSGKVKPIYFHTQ
Put plainly: Androgen receptor binding.

Test [2] addresses T2, mineralocorticoid receptor (MR) (Homo sapiens, UniProt P08235).
T2 sequence (P08235 1-984): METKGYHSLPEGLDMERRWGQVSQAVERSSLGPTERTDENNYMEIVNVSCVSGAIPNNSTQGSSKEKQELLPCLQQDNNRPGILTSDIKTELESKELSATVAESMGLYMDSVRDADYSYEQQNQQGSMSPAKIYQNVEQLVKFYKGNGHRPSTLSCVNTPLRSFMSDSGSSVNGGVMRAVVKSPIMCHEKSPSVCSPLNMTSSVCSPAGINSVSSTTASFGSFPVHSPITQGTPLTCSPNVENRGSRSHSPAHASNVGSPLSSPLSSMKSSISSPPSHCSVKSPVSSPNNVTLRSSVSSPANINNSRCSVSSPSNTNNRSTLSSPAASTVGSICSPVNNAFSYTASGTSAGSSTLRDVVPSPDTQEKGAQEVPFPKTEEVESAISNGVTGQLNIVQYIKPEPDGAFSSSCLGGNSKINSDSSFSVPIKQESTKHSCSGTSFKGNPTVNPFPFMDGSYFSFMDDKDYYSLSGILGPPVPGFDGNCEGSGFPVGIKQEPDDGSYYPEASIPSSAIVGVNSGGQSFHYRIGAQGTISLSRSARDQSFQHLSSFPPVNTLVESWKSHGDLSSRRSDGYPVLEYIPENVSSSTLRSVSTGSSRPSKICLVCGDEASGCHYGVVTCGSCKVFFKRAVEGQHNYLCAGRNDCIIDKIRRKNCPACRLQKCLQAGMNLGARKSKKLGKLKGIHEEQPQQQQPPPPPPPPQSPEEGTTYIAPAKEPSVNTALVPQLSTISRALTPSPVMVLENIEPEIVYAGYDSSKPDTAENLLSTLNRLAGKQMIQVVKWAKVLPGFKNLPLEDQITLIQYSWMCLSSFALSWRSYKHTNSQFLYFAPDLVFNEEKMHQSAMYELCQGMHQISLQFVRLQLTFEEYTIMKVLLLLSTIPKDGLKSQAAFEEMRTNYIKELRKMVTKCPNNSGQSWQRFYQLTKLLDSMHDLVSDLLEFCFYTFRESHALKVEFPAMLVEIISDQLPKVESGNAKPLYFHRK
Put plainly: Mineralocorticoid receptor binding. To be noted: in vitro.

Regarding `O=C1OCc2cc(NC(=O)C(O)(CC3(c4cc(C(F)(F)F)ccc4F)CC3)C(F)(F)F)ccc21` (single isomer, unassigned; (+)) [((+)-1), (+)-5-{2-hydroxy-3-[1-(2-fluoro-5-trifluoromethylphenyl)-cyclopropyl]-2-trifluoromethyl-propionylamino}-phthalide], in test [1], the “binding affinity for the androgen receptor (AR)” value is “moderate”. The “affinity for the mineralocorticoid receptor (MR)” value in test [2] is “negligible”.
